In US20250041303A1, “COMBINATION THERAPY FOR CANCER TREATMENT” (INSTITUTE FOR CANCER RESEARCH D/B/A THE RESEARCH INSTITUTE …, priority 2021, published 2025):

Columns and labels:
[1] = test system: HCT-15, DLD-1 and CAKI-1 cells (MDR1 overexpressing); assay: CellTiter-Glo cell viability of MDR1 overexpressing vs low MDR1 cancer cell lines; conditions: HCT-15, DLD-1, CAKI-1 vs A1847, SUM159, MOLT4; escalating doses, 5 days
[2] = test system: A1847 and SUM159 parental and degrader-resistant cells; assay: CellTiter-Glo cell viability, parental vs degrader-resistant cells
MDR1 [3] = molecular target: T1, MDR1 (Homo sapiens, UniProt P08183); assay: Rhodamine 123 efflux assay in DLD-1 cells; format: cell-based; design: endogenous in cells; conditions: 2 μM
Protocol: (§1) Efflux assay was performed according to manufacturer's protocol (Millipore Sigma #ECM910). Cells were resuspended in cold efflux buffer and incubated with Rhodamine 123 for 1 hour on ice. Cells were centrifuged and treated in warm efflux buffer with DMSO or drug for 30-60 minutes, washed with cold PBS, and effluxed dye was quantified with a plate reader at an excitation wavelength of 485 nm and an emission wavelength of 530 nm.

[4] = test system: BET proteins (BRD2, BRD3 or BRD4); assay: Western blot of BET protein degradation, parental vs degrader-resistant cells; format: cell-based; conditions: for degradation of BET proteins by escalating doses: 0-10 μM, 24 hours
Protocol: (§2) Samples were harvested in MIB lysis buffer (50 mM HEPES (pH 7.5), 0.5% Triton X-100, 150 mM NaCl, 1 mM EDTA, 1 mM EGTA, 10 mM sodium fluoride, 2.5 mM sodium orthovanadate, 1× protease inhibitor cocktail (Roche), and 1% each of phosphatase inhibitor cocktails 2 and 3 (Sigma)). Particulate was removed by centrifugation of lysates at 21,000 rpm for 15 minutes at 4° C. Lysates were subjected to SDS-PAGE chromatography and transferred to PVDF membranes before western blotting with primary antibodies. […] Secondary HRP-anti-rabbit and HRP-anti-mouse were obtained from ThermoFisher Scientific. SuperSignal West Pico and Femto Chemiluminescent Substrates (Thermo) were used to visualize blots.

[5] = test system: A1847 dBET6-R or Thal-R cells; assay: Apoptosis by western blot in degrader-resistant A1847 cells; format: cell-based; conditions: 2 μM, 4 hours
Protocol: as §2

CDK9 [6] = molecular target: T2, CDK9 (Homo sapiens, UniProt P50750); assay: Western blot of CDK9 degradation, A1847 parental vs Thal-R cells; format: cell-based; conditions: A1847 Thal-R vs parental; 2 μM, 4 hours
Protocol: as §2

MDR1 [7] = molecular target: T1, MDR1; assay: Rhodamine 123 efflux assay in degrader-resistant cells; format: cell-based; design: endogenous in cells; host or cells: A1847 parental, dBET6-R, Thal-R; SUM159 parental, MZ1-R; conditions: 2 μM
Protocol: as §1

CDK9 [8] = molecular target: T2, CDK9; assay: Western blot of CDK9 degradation in DLD-1 cells; format: cell-based; design: endogenous in cells; host or cells: DLD-1; conditions: DLD-1; increasing doses of Thal SNS 032 plus the compound at 2 μM, 4 hours
Protocol: as §2

DLD-1 cells = assay: Colony formation assay (14 days) in DLD-1 cells; conditions: for colony formation on co-treatment with dBET6: dBET6 0.1 μM plus the compound at 2 μM, 14-day period
BRD4 (BET proteins) = molecular target: T3, BRD4 (BET proteins) (Homo sapiens, UniProt O60885); assay: Western blot of BET protein/BRD4 degradation in DLD-1 cells; format: cell-based; conditions: 4 hours; for dBET6-mediated degradation of BRD4 on combined treatment: increasing doses of dBET6 plus the compound at 2 μM
T3 construct: endogenous in cells; host or cells: DLD-1
Protocol: as §2

[9] = test system: OVCAR3, HCT116, and MOLT4 cells; assay: CellTiter-Glo cell viability, parental vs MZ1 chronically exposed cells; conditions: 5 days
ABCB1 (MDR1) = assay: ABCB1 expression and MDR1 protein by qRT-PCR and immunoblot after chronic MZ1 exposure; format: cell-based
Protocol: GeneJET RNA purification kit (Thermo Scientific) was used to isolate RNA from cells according to manufacturer's instructions. qRT-PCR on diluted cDNA was performed with inventoried TaqMan® Gene Expression Assays on the Applied Biosystems 7500 Fast Real-Time PCR System. The TaqMan Gene Expression Assay probes (ThermoFisher Scientific) used to assess changes in gene expression include ABCB1 (Assay ID: Hsxxxx), and ACTB (control) (Assay ID: Hsxxxx).

A1847 or SUM159 cells = assay: Colony formation assay (14 days, crystal violet); conditions: SUM159 cells expressing Flag-MDR1, MZ1 0.1 μM, with or without tariquidar 0.1 μM
MDR1 (ABCB1) = assay: Single-run proteomics (LC-MS/MS, label-free quantitation) of degrader-resistant cells; format: cell-based, human
Protocol: To determine changes in cells chronically exposed to BET or CDK9 PROTACs, we performed single-run proteome analysis as previously described (Lai et al., Front. Oncol., 2020, 10, 2336). Briefly, WT or PROTAC-R cells were lysed in 50 mM HEPES pH 8.0+4% SDS, and 100 μg of proteins were digested using LysC and trypsin. Digested peptides were isolated using C-18 and PGC columns, then dried and cleaned with ethyl acetate. Three […] peptides were analyzed using LC-MS/MS. MaxQuant normalized LFQ values were imported into Perseus software (1.6.2.3) and filtered in the following manner: kinases identified by site only were removed, reverse, or potential contaminant were removed then filtered for kinases identified by >1 unique peptide. Protein LFQ values were log 2 transformed, filtered for a minimum valid number of 3, normalized using Z-scores, annotated, and subjected to a Student's t-test with comparing […]. […]
Proteolytic peptides were resuspended in 0.1% formic acid and separated with a Thermo Scientific RSLC nano Ultimate 3000 LC on a Thermo Scientific Easy-Spray C18 PepMap 75 μm×50 cm C-18 2 μm column. […] Eluted peptides were analyzed by Thermo Scientific Q Exactive or Q Exactive plus mass spectrometers utilizing a top 15 methodology in which the 15 most intense peptide precursor ions were subjected to fragmentation. […]
Raw data analysis of LFQ experiments was performed using MaxQuant software 1.6.1.0 and searched using Andromeda 1.5.6.0 against the Swiss-Prot human protein database (downloaded on Apr. 24, 2019, 20402 entries). […] LFQ quantitation was performed using MaxQuant with the following parameters; LFQ minimum ratio count: Global parameters for protein quantitation were as follows: label minimum ratio count: 1, peptides used for quantitation: unique, only use modified proteins selected and with normalized average ratio estimation selected. Match between runs was employed for LFQ quantitation and the significance threshold of the ion score was calculated based on a false discovery rate of <1%.

MEK1/2 [10] = assay: Western blot of MEK1/2 degradation and ERK1/2 phosphorylation in LS513 cells; format: cell-based; conditions: LS513 (MDR1-overexpressing) vs SKCO1; escalating doses, 4 hours
Protocol: as §2

[11] = test system: K-ras mutant CRC cell lines (LS1034, LS513, SW948, SW1463, SKCO1, NCIH747, SW620); assay: Cell viability (CellTiter-Glo) and colony formation of K-ras mutant CRC cell lines; conditions: escalating doses 5 days (viability); 1 μM 14 days (colony formation)
MEK1/2 [12] = assay: Western blot of MEK1/2 degrader target in DLD-1 cells; format: cell-based; conditions: 1 μM, 24 hours
[13] = A1847 parental vs chronically exposed cells, escalating doses, 5 days

T1 sequence (P08183 whole entry): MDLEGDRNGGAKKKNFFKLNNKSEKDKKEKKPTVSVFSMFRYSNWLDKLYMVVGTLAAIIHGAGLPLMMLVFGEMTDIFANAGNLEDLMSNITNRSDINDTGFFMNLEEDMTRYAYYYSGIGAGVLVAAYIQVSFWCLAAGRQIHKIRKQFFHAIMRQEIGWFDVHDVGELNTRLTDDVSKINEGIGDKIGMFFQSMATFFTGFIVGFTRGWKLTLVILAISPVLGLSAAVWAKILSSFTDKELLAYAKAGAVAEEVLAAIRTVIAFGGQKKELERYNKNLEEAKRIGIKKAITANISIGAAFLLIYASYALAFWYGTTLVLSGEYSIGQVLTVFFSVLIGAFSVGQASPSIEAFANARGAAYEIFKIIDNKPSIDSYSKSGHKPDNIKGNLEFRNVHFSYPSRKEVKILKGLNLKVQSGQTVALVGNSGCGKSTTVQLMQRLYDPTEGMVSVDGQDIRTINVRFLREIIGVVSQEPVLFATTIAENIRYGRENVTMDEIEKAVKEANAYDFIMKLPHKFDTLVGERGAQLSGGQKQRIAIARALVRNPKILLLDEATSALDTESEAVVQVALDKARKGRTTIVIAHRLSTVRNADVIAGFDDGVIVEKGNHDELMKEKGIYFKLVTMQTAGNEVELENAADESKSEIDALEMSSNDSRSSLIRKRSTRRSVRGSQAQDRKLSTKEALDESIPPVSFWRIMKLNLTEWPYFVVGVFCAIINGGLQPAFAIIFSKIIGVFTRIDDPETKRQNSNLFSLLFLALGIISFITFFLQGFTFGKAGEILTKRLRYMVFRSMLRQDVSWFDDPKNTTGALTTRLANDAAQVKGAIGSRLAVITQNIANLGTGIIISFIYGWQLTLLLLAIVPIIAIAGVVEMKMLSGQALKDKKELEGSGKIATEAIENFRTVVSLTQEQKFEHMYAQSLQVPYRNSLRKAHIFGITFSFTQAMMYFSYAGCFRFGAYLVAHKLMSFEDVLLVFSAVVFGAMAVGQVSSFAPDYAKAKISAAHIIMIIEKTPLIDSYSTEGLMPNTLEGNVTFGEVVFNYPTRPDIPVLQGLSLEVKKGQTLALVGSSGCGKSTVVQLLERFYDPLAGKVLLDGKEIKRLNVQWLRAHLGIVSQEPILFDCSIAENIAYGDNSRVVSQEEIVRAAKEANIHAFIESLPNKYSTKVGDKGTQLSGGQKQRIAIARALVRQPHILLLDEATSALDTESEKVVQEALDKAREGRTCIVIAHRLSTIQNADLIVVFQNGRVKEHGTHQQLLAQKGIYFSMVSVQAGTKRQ
T2 sequence (P50750 whole entry): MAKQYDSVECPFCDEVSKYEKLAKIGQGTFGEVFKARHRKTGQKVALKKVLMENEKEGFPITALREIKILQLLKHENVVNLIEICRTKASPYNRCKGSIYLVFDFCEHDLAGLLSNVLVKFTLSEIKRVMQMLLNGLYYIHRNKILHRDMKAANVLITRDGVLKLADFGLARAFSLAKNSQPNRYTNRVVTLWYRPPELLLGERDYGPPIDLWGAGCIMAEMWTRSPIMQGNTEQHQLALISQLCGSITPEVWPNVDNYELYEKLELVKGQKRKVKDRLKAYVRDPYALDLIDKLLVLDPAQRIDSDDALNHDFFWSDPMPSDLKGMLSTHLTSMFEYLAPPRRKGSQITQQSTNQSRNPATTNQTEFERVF
T2 sequence (O60563 whole entry partner): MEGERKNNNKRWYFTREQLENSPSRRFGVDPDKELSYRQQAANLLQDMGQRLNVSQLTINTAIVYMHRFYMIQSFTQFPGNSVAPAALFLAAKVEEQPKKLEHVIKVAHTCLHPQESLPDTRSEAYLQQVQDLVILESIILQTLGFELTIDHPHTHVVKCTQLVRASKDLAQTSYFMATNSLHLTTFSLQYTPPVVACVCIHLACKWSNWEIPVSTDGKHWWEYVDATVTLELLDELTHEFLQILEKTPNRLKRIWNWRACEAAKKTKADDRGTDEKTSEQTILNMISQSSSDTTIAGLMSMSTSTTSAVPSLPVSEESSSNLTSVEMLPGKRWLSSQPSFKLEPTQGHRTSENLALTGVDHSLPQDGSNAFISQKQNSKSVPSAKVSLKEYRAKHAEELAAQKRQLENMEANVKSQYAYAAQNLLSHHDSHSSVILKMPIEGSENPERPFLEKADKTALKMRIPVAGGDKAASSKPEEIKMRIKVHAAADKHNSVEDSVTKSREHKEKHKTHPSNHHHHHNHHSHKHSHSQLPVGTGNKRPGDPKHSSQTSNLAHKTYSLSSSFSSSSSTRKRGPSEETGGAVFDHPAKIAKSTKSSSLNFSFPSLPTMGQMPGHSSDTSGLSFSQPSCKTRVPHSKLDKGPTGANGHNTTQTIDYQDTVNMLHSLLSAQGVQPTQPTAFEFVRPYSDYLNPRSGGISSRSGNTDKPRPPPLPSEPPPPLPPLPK

Cc1sc2c(c1C)C(c1ccc(Cl)cc1)=N[C@@H](CC(=O)NCCCCCCCCNC(=O)COc1cccc3c1C(=O)N(C1CCC(=O)NC1=O)C3=O)c1nnc(C)n1-2 (some centres unmarked) [dBET6]
cell viability of MDR1 overexpressing cells [1]: did not reduce cell viability to the extent of cancer cell lines expressing low or no detectable MDR1 protein
acquired resistance (cell viability dose-response) [2, 13]: acquire resistance

CO[C@H]1C[C@@H]2CC[C@@H](C)[C@@](O)(O2)C(=O)C(=O)N2CCCC[C@H]2C(=O)O[C@H]([C@H](C)C[C@@H]2CC[C@@H](OCCO)[C@H](OC)C2)CC(=O)[C@H](C)/C=C(\C)[C@@H](O)[C@@H](OC)C(=O)[C@H](C)C[C@H](C)/C=C/C=C/C=C/1C [RAD001, Everolimus]
MDR1 drug efflux activity (Rhodamine 123 efflux) (MDR1 [3]): reduced MDR1 drug efflux activity similar to tariquidar-treatment
degradation of BET proteins in degrader-resistant cell lines ([4]; A1847 dBET6-R or MZ1-R vs parental, 2 μM, 4 hours): resulted in degradation of BET proteins
apoptosis in degrader-resistant cell lines [5]: resulted in apoptosis similar to tariquidar treatment
degradation of CDK9 in degrader-resistant cell lines (CDK9 [6]): resulted in degradation of BET proteins (FIG. 5, Panel G; FIG. 12, Panels E and F) or CDK9
MDR1 drug efflux activity (Rhodamine 123 efflux) (MDR1 [7]; A1847 dBET6-R or Thal-R cell lines): reduced MDR1 drug efflux activity similar to that observed with tariquidar
degradation of CDK9 by Thal SNS 032 on combined treatment (CDK9 [8]): improving degradation of CDK9
growth inhibition of colonies on combination with Thal SNS 032 (DLD-1 cells; compound at 2 μM, 14 days): enhancing growth inhibition of colonies
colony formation on co-treatment with dBET6 (DLD-1 cells): exhibits drug synergy
reduction in concentrations of dBET6 required to degrade BRD4 when combined (BRD4 (BET proteins); combined with the compound at 2 μM): 100 fold
dBET6-mediated degradation of BRD4 on combined treatment (BRD4 (BET proteins)): improved dBET6-mediated degradation of BRD4
sensitivity of degrader-resistant cells vs parental cells (cell viability) ([2]; increasing concentrations, A1847 dBET6-R, Thal-R, MZ1-R and SUM159 MZ1-R): more sensitive

COc1ccc(-c2ccc3c(N4CCOCC4)nc(N4C[C@@H](C)O[C@@H](C)C4)nc3n2)cc1CO [KU-0063794]
MDR1 drug efflux activity (Rhodamine 123 efflux) (MDR1 [7]; A1847 Thal-R cells): does not reduce MDR1 drug efflux activity
colony formation, single agent (DLD-1 cells; 2 μM, 14 days): completely repressed colony formation
colony formation on co-treatment with dBET6 (DLD-1 cells): did not improve growth inhibition
dBET6-mediated degradation of BRD4 on combined treatment (BRD4 (BET proteins)): failed to improve degradation of BRD4

CN(C)C/C=C/C(=O)Nc1cc2c(Nc3ccc(F)c(Cl)c3)ncnc2cc1O[C@H]1CCOC1 [afatinib]
MDR1 drug efflux activity (Rhodamine 123 efflux) (MDR1 [7]; A1847 Thal-R cells): does not reduce MDR1 drug efflux activity

Cc1ncsc1-c1ccc(CNC(=O)[C@@H]2C[C@@H](O)CN2C(=O)[C@@H](NC(=O)COCCOCCOCCNC(=O)C[C@@H]2N=C(c3ccc(Cl)cc3)c3c(sc(C)c3C)-n3c(C)nnc32)C(C)(C)C)cc1 [MZ1]
degradation of BET proteins by escalating doses ([4]; A1847 parental vs chronically exposed cells): less effective at inducing degradation of BET proteins
degradation of BET proteins by escalating doses ([4]; SUM159 parental vs MZ1-R cells): less effective at inducing degradation of BET proteins
sensitivity after chronic exposure (cell viability) ([9]; MOLT4 parental or MZ1-R cells): retain sensitivity
acquired resistance (cell viability) ([9]; OVCAR3 and HCT116, chronic exposure): acquired resistance
ABCB1 expression after chronic exposure (ABCB1 (MDR1); MOLT4 cells): do not induce ABCB1 expression
MDR1 mRNA and protein levels after chronic exposure (ABCB1 (MDR1); OVCAR3 and HCT116 MZ1-R cells): elevated MDR1 mRNA and protein levels
colony formation with forced expression of Flag-MDR1 (A1847 or SUM159 cells): rescued colony formation growth
MDR1 protein levels upregulated relative to parental cell lines by LFQ analysis (MDR1 (ABCB1); A1847 cells chronically exposed to the degrader (degrader-R) vs parental): 5-5 fold
MDR1 protein increase compared to parental cells (proteomics) (MDR1 (ABCB1); SUM159 MZ1-R cells vs parental): ~4.5 fold
cell viability of MDR1 overexpressing cells [1]: did not reduce cell viability to the extent of cancer cell lines expressing low or no detectable MDR1 protein
acquired resistance (cell viability dose-response) [2, 13]: acquire resistance
acquired resistance (cell viability dose-response) ([2]; SUM159 parental vs chronically exposed (MZ1-R) cells, 5 days): resulted in degrader-resistance

Cc1ncsc1-c1ccc([C@H](C)NC(=O)[C@@H]2C[C@@H](O)CN2C(=O)[C@@H](NC(=O)CCCCCCCCCCNCCCONC(=O)c2ccc(F)c(F)c2Nc2ccc(I)cc2F)C(C)(C)C)cc1 [MS432]
MEK1 or MEK2 protein levels, ERK1/2 phosphorylation, apoptosis (MEK1/2 [10]): did not reduce MEKI or MEK2 protein levels, inhibit ERK1/2 phosphorylation or induce apoptosis
resistance of MDR1 overexpressing vs MDR1 low expressing CRC cell lines [11]: more resistant
protein reduction on co-treatment with tariquidar (MEK1/2 [12]): improved the protein reduction relative to single agent therapies

CC(=O)O[C@H]1C(=O)[C@@]2(C)[C@H]([C@H](OC(=O)c3ccccc3)[C@]3(O)C[C@H](OC(=O)[C@H](O)[C@@H](NC(=O)c4ccccc4)c4ccccc4)C(C)=C1C3(C)C)[C@]1(OC(C)=O)CO[C@@H]1C[C@@H]2O [paclitaxel]
resistance to MDR1 substrate (cell viability) ([2]; BET protein or CDK9 degrader-resistant A1847 cells vs parental, 5 days): acquired resistance

Cc1sc2c(c1C)C(c1ccc(Cl)cc1)=N[C@@H](CC(=O)OC(C)(C)C)c1nnc(C)n1-2 [JQ1]
sensitization to tariquidar after chronic exposure ([2]; A1847 JQ1-R vs parental and dBET6-R cells): did not cause sensitization to tariquidar
